The test system of assay [1] is IL-1β, human whole blood. Description: Whole blood assay for IL-1β production. In kind it is cell-based. To be noted: Table 17, read-out: Whole human blood IC50. Summed up: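 IL-1β was quantified by ELISA in plasma diluted 1:200. The plasma came from EDTA-anticoagulated human whole blood incubated at 30 °C for 16-18 h with LPS (final 5.0 ng/ml) plus a saline serial dilution of compound. Controls were no-LPS, no-inhibitor and highest-vehicle.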

Assay [2] relates to IL-1β production, LPS-challenged mice. The experiment in a line: In vivo acute assay for efficacy as anti-inflammatory agent: LPS-induced IL-1β production in mice. Also noted: species or system mouse. To be noted: LPS challenged mice, compound PO, 50 mg/kg; for inhibition at 50 mg/kg: Mus musculus, po, read-out: percent inhibition of IL-1β production. As for the experimental part: In Vivo Acute Assay for Efficacy as Anti-Inflammatory Agent
LPS-Induced IL-1β Production.
Efficacy of 214e and 217e was evaluated in CD1 mice (n=6 per condition) challenged with LPS (20 mg/kg IP). […] Blood was collected seven hours after LPS challenge. Serum IL-1β levels were measure by ELISA. […] Similar results were obtained in a second experiment. […] However, a clear dose response was not apparent.
Compounds 214e and 217e (50 mg/kg) were also administered by oral gavage to assess absorption.
The efficacy of analogs of 214e were also evaluated in LPS challenged mice after IP administration (FIG. 9) and PO administration (FIG. 10).
[…] The protocol is described in Example 7.

Where [3] appears, read: 0 h, administered 0 h relative to time of LPS challenge.
Setting [4] is: 2 h, administered −2 h relative to time of LPS challenge.
The mark [5] stands for this setting: administered 0 h relative to time of LPS challenge.
The mark [6] stands for this setting: administered −2 h relative to time of LPS challenge.

Read-outs that look alike come from different tables or passages of the source. Some results are limits rather than exact numbers.

As usually defined, the IC50 is the point on the concentration scale where inhibition reaches its midpoint. What is called inhibition is the change of the read-out against control, counted positive when it falls. For `O=C1C[C@H](NC(=O)[C@@H]2CCCN3C(=O)CC[C@H](NC(=O)c4cc(Cl)c(O)c(Cl)c4)C(=O)N23)C(OCc2ccccc2)O1` (stereo partly drawn) [Compound 213k, [1S,9S(2RS,3S)]9-[(3,5-Dichloro-4-hydroxybenzoyl)amino]-6,10-dioxo-1,2,3,4,7,8,9,10-octahydro-N-(2-Benzyloxy-5-oxotetrahydrofuran-3-yl)-6H-pyridazino[1,2-a][1,2]diazepine-1-carboxamide], the IC50 in assay [1] (Homo sapiens) turned out to be 2000 nM. For the same molecule, the values for the inhibition at 50 mg/kg in assay [2] (setting [3]) and in assay [2] (setting [4]) were 68% and 0%, respectively.
On to `CN(C)c1ccc(C(=O)N[C@H]2CCC(=O)N3CCC[C@@H](C(=O)N[C@H]4CC(=O)OC4OCc4ccccc4)N3C2=O)cc1` (mixture of isomers) [Compound 213f, [1S,9S(2RS,3S)]9-[(4-Dimethylaminobenzoyl)amino]-6,10-dioxo-1,2,3,4,7,8,9,10-octahydro-N-(2-Benzyloxy-5-oxotetrahydrofuran-3-yl)-6H-pyridazino[1,2-a][1,2]diazepine-1-carboxamide], for which, in assay [1], the IC50 turned out to be 3000 nM. Besides, the “percent inhibition of IL-1β production” value is reported as 8% in assay [2] (setting [5]) and “(−4) %” in assay [2] (setting [6]).
In the case of `CCOC1OC(=O)C[C@@H]1NC(=O)[C@@H]1CCCN2C(=O)CC[C@H](NC(=O)c3cc(Cl)c(OC)c(Cl)c3)C(=O)N12` (stereo partly drawn) [Compound 550m, [1S,9S(2RS,3S)]9-[(3,5-Dichloro-4-methoxybenzoyl)amino]-6,10-dioxo-1,2,3,4,7,8,9,10-octahydro-N-(2-ethoxy-5-oxotetrahydrofuran-3-yl)-6H-pyridazino[1,2-a][1,2]diazepine-1-carboxamide], the IC50 in assay [1] (Homo sapiens) came to 2000 nM. Further, the inhibition at 50 mg/kg in assay [2] (setting [3]) was found to be 52%; in assay [2] (setting [4]), 45%.
Take `O=C1C[C@H](NC(=O)[C@@H]2CCCN3C(=O)CC[C@H](NC(=O)c4nccc5ccccc45)C(=O)N23)C(OCc2ccccc2)O1` (mixture of isomers) [Compound 213y, [1S,9S(2RS,3S)]N-(2-Benzyloxy-5-oxotetrahydrofuran-3-yl)-6,10-dioxo-9-(isoquinolin-1-oylamino)-1,2,3,4,7,8,9,10-octahydro-6-H-pyridazino[1,2-a][1,2]diazepine-1-carboxamide]: the IC50 in assay [1] is 930 nM. Further, the “percent inhibition of IL-1β production” value in assay [2] (setting [5]) is given as 50%; in assay [2] (setting [6]), 29%.
Regarding `CCOC1OC(=O)C[C@@H]1NC(=O)[C@@H]1CCCN2C(=O)CC[C@H](NC(=O)c3cc(Cl)c(O)c(Cl)c3)C(=O)N12` (stereo partly drawn) [Compound 550k, [1S,9S(2RS,3S)]9-[(3,5-Dichloro-4-hydroxybenzoyl)amino]-6,10-dioxo-1,2,3,4,7,8,9,10-octahydro-N-(2-ethoxy-5-oxotetrahydrofuran-3-yl)-6H-pyridazino[1,2-a][1,2]diazepine-1-carboxamide], in assay [1] (Homo sapiens), the IC50 was 3000 nM. The figures for the inhibition at 50 mg/kg in assay [2] (setting [3]) and in assay [2] (setting [4]) were 34% and 36%, respectively.
In the same order, the values of `COc1c(Cl)cc(C(=O)N[C@H]2CCC(=O)N3CCC[C@@H](C(=O)N[C@H]4CC(=O)OC4OCc4ccccc4)N3C2=O)cc1Cl` (stereo partly drawn) [Compound 213m, [1S,9S(2RS,3S)]9-[(3,5-Dichloro-4-methoxybenzoyl)amino]-6,10-dioxo-1,2,3,4,7,8,9,10-octahydro-N-(2-Benzyloxy-5-oxotetrahydrofuran-3-yl)-6H-pyridazino[1,2-a][1,2]diazepine-1-carboxamide] are 2500 nM, 42% and 26%.
In the same order, the values of `CCOC1OC(=O)C[C@@H]1NC(=O)[C@@H]1CCCN2C(=O)CC[C@H](NC(=O)c3ccc(NC(C)=O)c(Cl)c3)C(=O)N12` (stereo partly drawn) [Compound 550l, [1S,9S (2RS,3S)]9-[(3-Chloro-4-acetamidobenzoyl)amino]-6,10-dioxo-1,2,3,4,7,8,9,10-octahydro-N-(2-ethoxy-5-oxotetrahydrofuran-3-yl)-6H-pyridazino[1,2-a][1,2]diazepine-1-carboxamide] are 750 nM, 38% and 9%.
Take `Cc1ccccc1C(=O)N[C@H]1CCC(=O)N2CCC[C@@H](C(=O)N[C@H]3CC(=O)OC3OCc3ccccc3)N2C1=O` (mixture of isomers) [Compound 213r, [1S,9S(2RS,3S)]N-(2-Benzyloxy-5-oxotetrahydrofuran-3-yl)-6,10-dioxo-1,2,3,4,7,8,9,10-octahydro-9-(2-toluoylamino)-6H-pyridazino[1,2-a][1,2]diazepine-1-carboxamide]: the concentration for half-maximal inhibition (IC50) in assay [1] is below 300 nM. Besides, the “percent inhibition of IL-1β production” value in assay [2] (setting [5]) amounted to 37%; in assay [2] (setting [6]), 59%.
The like results for `O=C1C[C@H](NC(=O)[C@@H]2CCCN3C(=O)CC[C@H](NC(=O)c4ccc(O)cc4)C(=O)N23)C(OCc2ccccc2)O1` (mixture of isomers) [Compound 213p, [1S,9S (2RS,3S)]N-(2-Benzyloxy-5-oxotetrahydrofuran-3-yl)-6,10-dioxo-9-(4-hydroxybenzoyl)amino-1,2,3,4,7,8,9,10-octahydro-6H-pyridazino[1,2-a][1,2]diazepine-1-carboxamide] were, in that order, below 300 nM, 29% and 21%.
Regarding `O=C1C[C@H](NC(=O)[C@@H]2CCCN3C(=O)CC[C@H](NC(=O)c4cc5ccccc5[nH]4)C(=O)N23)C(OCc2ccccc2)O1` (mixture of isomers) [Compound 213q, [1S,9S(2RS,3S)]N-(2-Benzyloxy-5-oxotetrahydrofuran-3-yl)-6,10-dioxo-9-(indol-2-oylamino)-1,2,3,4,7,8,9,10-octahydro-6H-pyridazino[1,2-a][1,2]diazepine-1-carboxamide], the IC50 in assay [1] is below 300 nM. Besides, the “percent inhibition of IL-1β production” value in assay [2] (setting [5]) amounted to 91%; in assay [2] (setting [6]) it was 17%.
Take `O=C1C[C@H](NC(=O)[C@@H]2CCCN3C(=O)CCN(NC(=O)c4ccc5c(c4)OCO5)C(=O)N23)C(OCc2ccccc2)O1` (stereo partly drawn) [Compound 264l, [4S(2RS,3S)]N-(2-Benzyloxy-5-oxotetrahydrofuran-3-yl)-6,10-dioxo-7-(3,4-methylenedioxybenzoylamino)-1,2,3,4,7,8,9,10-octahydro-6H-pyridazino[1,2-a][1,2,4]triazepine-4-carboxamide]: in assay [1] (Homo sapiens), the IC50 was found to be 3000 nM. Besides, the inhibition at 50 mg/kg in assay [2] (setting [3]) was 23%; in assay [2] (setting [4]) it was 0%.
In the same order, the values of `CC(=O)OC1OC(=O)CC1NC(=O)[C@@H]1CCCN2C(=O)CC[C@H](NC(=O)c3ccccc3)C(=O)N12` (mixture of isomers) [Compound 2100h, [1S,9S(2RS,3RS)]9-Benzoylamino-6,10-dioxo-1,2,3,4,7,8,9,10-octahydro-N-(2-acetoxy-5-oxotetrahydrofuran-3-yl)-6H-pyridazino[1,2-a][1,2]diazepine-1-carboxamide] are 2000 nM, 32% and 34%.
In the same order, the values of `CCOC1OC(=O)C[C@@H]1NC(=O)[C@@H]1CCCN2C(=O)CC[C@H](NC(=O)c3ccc(N(C)C)cc3)C(=O)N12` (stereo partly drawn) [Compound 550f, [1S,9S(2RS,3S)]9-[(4-Dimethylaminobenzoyl)amino]-6,10-dioxo-1,2,3,4,7,8,9,10-octahydro-N-(2-ethoxy-5-oxotetrahydrofuran-3-yl)-6H-pyridazino[1,2-a][1,2]diazepine-1-carboxamide] are 1100 nM, 50% and 0%.
The like results for `CCOC1OC(=O)C[C@@H]1NC(=O)[C@@H]1CCCN2C(=O)CC[C@H](NC(=O)c3ccc(N)c(Cl)c3)C(=O)N12` (stereo partly drawn) [Compound 550h, [1S,9S(2RS,3S)]9-[(3-Chloro-4-aminobenzoyl)amino]-6,10-dioxo-1,2,3,4,7,8,9,10-octahydro-N-(2-ethoxy-5-oxotetrahydrofuran-3-yl)-6H-pyridazino[1,2-a][1,2]diazepine-1-carboxamide] were, in that order, 1800 nM, 73% and 55%.
As to `COc1ccc(C(=O)N[C@H]2CCC(=O)N3CCC[C@@H](C(=O)N[C@H]4CC(=O)OC4OCc4ccccc4)N3C2=O)cc1` (mixture of isomers) [Compound 213i, [1S,9S(2RS,3S)]9-[(4-Methoxybenzoyl)amino]-6,10-dioxo-1,2,3,4,7,8,9,10-octahydro-N-(2-Benzyloxy-5-oxotetrahydrofuran-3-yl)-6H-pyridazino[1,2-a][1,2]diazepine-1-carboxamide], the IC50 in assay [1] came out at 1100 nM. In addition, the “percent inhibition of IL-1β production” value in assay [2] (setting [5]) is recorded as 62%; in assay [2] (setting [6]) it was “(−11) %”.
On to `CC(=O)Nc1ccc(C(=O)N[C@H]2CCC(=O)N3CCC[C@@H](C(=O)N[C@H]4CC(=O)OC4OCc4ccccc4)N3C2=O)cc1Cl` (stereo partly drawn) [Compound 213l, [1S,9S(2RS,3S)]9-[(3-Chloro-4-acetamidobenzoyl)amino]-6,10-dioxo-1,2,3,4,7,8,9,10-octahydro-N-(2-Benzyloxy-5-oxotetrahydrofuran-3-yl)-6H -pyridazino[1,2-a][1,2]diazepine-1-carboxamide], for which the IC50 in assay [1] (Homo sapiens) turned out to be 2000 nM. Further, the inhibition at 50 mg/kg is 80% in assay [2] (setting [3]) and -18% in assay [2] (setting [4]).

Values taken from patent US20120165319A1, “INHIBITORS OF INTERLEUKIN-1 BETA CONVERTING ENZYME” (VERTEX PHARMACEUTICALS INCORPORATED, priority 1995, published 2012).
